Assay [1] has as its system upregulation of CD11b in GROα stimulated neutrophils in human whole blood. Put plainly: Human whole blood assay (CD11b upregulation). The format is cell-based. Particulars: Neutrophil, inhibition of CD11b upregulation, GROα 33 nM final, flow cytometry, read-out: pIC50 (human whole blood assay) (converted). The essentials:
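Heparinised human whole blood preincubated 15 min at 37 °C with compound (10-point, 1:3 dilutions), then stimulated with 33 nM final GROα for 15 min at 37 °C. CD11b-FITC/CD16-PE staining on ice, lysis/fixation, flow cytometry; neutrophils gated by side scatter and CD16.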
On the technique in general: A flow cytometer gives signals particle by particle.

Another assay addresses T1, recombinant human CXCR2 (Homo sapiens, UniProt P25025).
T1 construct: TEV protease site; Gal4-VP16 transcription factor
T1 sequence (P25025 1-360): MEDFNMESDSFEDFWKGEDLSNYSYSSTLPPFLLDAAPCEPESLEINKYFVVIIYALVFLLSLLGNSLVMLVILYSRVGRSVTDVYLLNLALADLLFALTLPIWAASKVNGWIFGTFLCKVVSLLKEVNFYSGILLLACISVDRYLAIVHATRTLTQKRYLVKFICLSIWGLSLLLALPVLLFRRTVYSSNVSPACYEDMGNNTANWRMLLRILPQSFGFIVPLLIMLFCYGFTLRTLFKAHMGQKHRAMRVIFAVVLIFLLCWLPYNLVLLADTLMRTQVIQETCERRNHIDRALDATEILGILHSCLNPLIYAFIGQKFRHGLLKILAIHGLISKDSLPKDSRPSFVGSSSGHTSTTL
Description: CXCR2 Tango assay. The format is cell-based. The note with it: mean pIC50 of multiple test results; stimulated with 80 nM hCXCL1; reporter gene blue/green emission ratio; read-out: pIC50 (CXCR2 Tango assay) (converted). An outline of the steps: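 A stable cell line carries human CXCR2 fused to a TEV site and Gal4-VP16, with protease-tagged arrestin. Cells (~10,000/well) were stimulated overnight at 37 °C with 80 nM hCXCL1 and a 10-point compound dilution. CCF4-AM beta-lactamase FRET (460/530 nm ratio) was read, normalized to hCXCL1 and DMSO, and mean pIC50 reported.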
In general terms: A reporter such as luciferase makes a cellular process visible.

SMILES strings stand for the structures. Where a name gives a salt, the structure may show the parent alone. Read-outs that look alike come from different tables or passages of the source. Where only a bound is given, the exact number is not on record here.

For `CC1=CCC[C@H]1NC(=O)Nc1ccc(Cl)c(S(=O)(=O)[C@H]2C[C@H](N3CCCC3)C2)c1O` [Compound 192, 1-(4-chloro-2-hydroxy-3-((trans-3-(pyrrolidin-1-yl)cyclobutyl)sulfonyl)phenyl)-3-((R)-2-methylcyclopent-2-en-1-yl)urea], the IC50 in assay [1] (Homo sapiens) was 25.1 to 2510 nM; at recombinant human CXCR2, not above 1 nM.
Turning to `CC1=CCC[C@H]1NC(=O)Nc1ccc(Cl)c(S(=O)(=O)[C@H]2C[C@H](N(C)C)C2)c1O` [Compound 193, 1-(4-chloro-3-((trans-3-(dimethylamino)cyclobutyl)sulfonyl)-2-hydroxyphenyl)-3-((R)-2-methylcyclopent-2-en-1-yl)urea], the IC50 in assay [1] was 25.1 to 2510 nM; at recombinant human CXCR2 it was not above 1 nM.
For `CC1=CCC[C@H]1NC(=O)Nc1ccc(Cl)c(S(=O)(=O)C(C)(F)F)c1O` [Compound 194, (R)-1-(4-chloro-3-((1,1-difluoroethyl)sulfonyl)-2-hydroxyphenyl)-3-(2-methylcyclopent-2-en-1-yl)urea] the same measures were 25.1 to 2510 nM and not above 1 nM.
Take `CC1=CCC[C@H]1NC(=O)Nc1ccc(Cl)c(S(=O)(=O)N2CCNCC2)c1O` [Compound 199, (R)-1-(4-chloro-2-hydroxy-3-(piperazin-1-ylsulfonyl)phenyl)-3-(2-methylcyclopent-2-en-1-yl)urea, trifluoroacetic acid salt]: the IC50 in assay [1] was 25.1 to 2510 nM; on recombinant human CXCR2 it was not above 10 nM.
Regarding `CCN1CCC(F)(S(=O)(=O)c2c(Cl)ccc(NC(=O)N[C@@H]3CCC=C3Cl)c2O)CC1` [Compound 200, (R)-1-(4-chloro-3-((1-ethyl-4-fluoropiperidin-4-yl)sulfonyl)-2-hydroxphenyl)-3-(2-chlorocyclopent-2-en-1-yl)urea], the values for the IC50 (in assay [1]; on recombinant human CXCR2) were 25.1 to 2510 nM and not above 1 nM, respectively.

These data come from patent US10106515B2, “1-(cyclopent-2-en-1-yl)-3-(2-hydroxy-3-(arylsulfonyl)phenyl)urea derivatives as CXCR2 inhibitors” (GLAXOSMITHKLINE INTELLECTUAL PROPERTY DEVELOPMENT LIMITED, priority 2014, dated 2018).
